Experimental data reported in the NIST ThermoML archive (doi:10.1021/je030147g).

How the values were obtained:
[1] = refractive index (Na D-line) (dimensionless); xn = mol fraction of the nth substance listed; settings: 101.33 kPa, Liquid
[2] = xn = mol fraction of the nth substance listed; settings: 101.33 kPa, Liquid

CCCCN(CCCC)CCCC [tributylamine] + ClC(Cl)=C(Cl)Cl
Settings | mass density, [2] [kg/m3] | refractive index, [1] | speed of sound, [2] [m/s] | viscosity, [2] [mPa·s]
298.15 K, x1 = 0.104 | 1433.8 | 1.4872 | 1052 | 0.917
298.15 K, x1 = 0.2059 | 1295.5 | 1.4748 | 1073 | 0.958
298.15 K, x1 = 0.3068 | 1185.4 | 1.4659 | 1094 | 0.996
298.15 K, x1 = 0.4073 | 1095 | 1.4566 | 1116 | 1.033
298.15 K, x1 = 0.4967 | 1026.9 | 1.4506 | 1136 | 1.065
298.15 K, x1 = 0.6069 | 955.4 | 1.4437 | 1162 | 1.104
298.15 K, x1 = 0.699 | 904.2 | 1.4396 | 1184 | 1.136
298.15 K, x1 = 0.8018 | 854.3 | 1.435 | 1209 | 1.172
298.15 K, x1 = 0.9007 | 812 | 1.4316 | 1235 | 1.206
298.15 K, x1 = 1 | 773.9 | 1.4276 | 1262 | 1.239
303.15 K, x1 = 0.104 | 1425.9 | 1.4842 | – | 0.869
303.15 K, x1 = 0.2059 | 1288.1 | 1.4721 | – | 0.902
303.15 K, x1 = 0.3068 | 1181.4 | – | – | 0.93
303.15 K, x1 = 0.4073 | 1089.1 | 1.4539 | – | 0.96
303.15 K, x1 = 0.4967 | 1021.5 | 1.4479 | – | 0.99
303.15 K, x1 = 0.6069 | 949.9 | 1.4415 | – | 1.018
303.15 K, x1 = 0.699 | 899.4 | 1.4367 | – | 1.053
303.15 K, x1 = 0.8018 | 849.4 | 1.4325 | – | 1.081
303.15 K, x1 = 0.9007 | 808 | 1.4289 | – | 1.104
303.15 K, x1 = 1 | 769.2 | 1.4255 | – | 1.124
308.15 K, x1 = 0.104 | 1418.2 | 1.481 | – | 0.818
308.15 K, x1 = 0.2059 | 1281.3 | 1.4692 | – | 0.844
308.15 K, x1 = 0.3068 | 1172.5 | 1.4594 | – | 0.869
308.15 K, x1 = 0.4073 | 1083.2 | 1.451 | – | 0.893
308.15 K, x1 = 0.4967 | 1015.9 | 1.445 | – | 0.914
308.15 K, x1 = 0.6069 | 945.2 | 1.4392 | – | 0.94
308.15 K, x1 = 0.699 | 894.7 | 1.434 | – | 0.961
308.15 K, x1 = 0.8018 | 845.3 | 1.4298 | – | 0.984
308.15 K, x1 = 0.9007 | 803.4 | 1.4263 | – | 1.006
308.15 K, x1 = 1 | 765.7 | 1.4228 | – | 1.028

CCCCN(CCCC)CCCC [tributylamine] + ClC=C(Cl)Cl
x1 = 1
Settings | mass density, 298.15 K [kg/m3] | mass density, 303.15 K [kg/m3] | mass density, 308.15 K [kg/m3] | refractive index, 298.15 K | refractive index, 303.15 K | refractive index, 308.15 K | speed of sound, 298.15 K [m/s] | viscosity, 298.15 K [mPa·s] | viscosity, 303.15 K [mPa·s] | viscosity, 308.15 K [mPa·s]
[1] | – | – | – | 1.4276 | 1.4255 | 1.4228 | – | – | – | –
[2] | 773.3 | 769.2 | 765.7 | – | – | – | 1262 | 1.239 | 1.124 | 1.028
